Measured values reported in US9499561B2, “Fused pyrimidine compound, and preparation method, intermediate, composition, and uses thereof” (Shanghai Yingli Science and Technology Co., Ltd., priority 2012, dated 2016).

Key:
[1] = tested on: U87-MG; test: Cell proliferation inhibition assay (MTT), U87-MG; type: cell-based; conditions: 72 hrs
Description: (§1) Cancer cell lines (A549, PC3, or […]) in the logarithmic growth phase were plated at a density of about 3,000 per well in 96-well plates, 90 μL/well, using double wells for each concentration. Control wells containing corresponding concentration of vehicle and without cells were also prepared. After 24 hrs, positive control compound and example compounds were added to make 10 μL/well and final DMSO concentration of 0.5%. The cells were incubated with compounds for 72 hrs in the presence of 10% Invitrogen fetal bovine serum, 37° C., 5% CO2. 5 mg/mL MTT solution was added to make 10 μL/well, and incubated for 4 hours at 37° C. A ddH2O solution (10% SDS, 5% isobutanol, 10 mmol/L HCl) was added to make 100 μL/well and incubated overnight at 37° C.

[2] = tested on: A549; test: Cell proliferation inhibition assay (MTT), A549; type: cell-based; conditions: 72 hrs
Description: as §1

[3] = tested on: PC3; test: Cell proliferation inhibition assay (MTT), PC3; type: cell-based; conditions: 72 hrs
Description: as §1

[4] = molecular target: PI3Kδ (Homo sapiens (Human), UniProt O00329); test: PI3Kδ enzymatic inhibitory activity IC50 assay (Caliper Reader); type: biochemical
Chain of PI3Kδ (O00329 whole entry): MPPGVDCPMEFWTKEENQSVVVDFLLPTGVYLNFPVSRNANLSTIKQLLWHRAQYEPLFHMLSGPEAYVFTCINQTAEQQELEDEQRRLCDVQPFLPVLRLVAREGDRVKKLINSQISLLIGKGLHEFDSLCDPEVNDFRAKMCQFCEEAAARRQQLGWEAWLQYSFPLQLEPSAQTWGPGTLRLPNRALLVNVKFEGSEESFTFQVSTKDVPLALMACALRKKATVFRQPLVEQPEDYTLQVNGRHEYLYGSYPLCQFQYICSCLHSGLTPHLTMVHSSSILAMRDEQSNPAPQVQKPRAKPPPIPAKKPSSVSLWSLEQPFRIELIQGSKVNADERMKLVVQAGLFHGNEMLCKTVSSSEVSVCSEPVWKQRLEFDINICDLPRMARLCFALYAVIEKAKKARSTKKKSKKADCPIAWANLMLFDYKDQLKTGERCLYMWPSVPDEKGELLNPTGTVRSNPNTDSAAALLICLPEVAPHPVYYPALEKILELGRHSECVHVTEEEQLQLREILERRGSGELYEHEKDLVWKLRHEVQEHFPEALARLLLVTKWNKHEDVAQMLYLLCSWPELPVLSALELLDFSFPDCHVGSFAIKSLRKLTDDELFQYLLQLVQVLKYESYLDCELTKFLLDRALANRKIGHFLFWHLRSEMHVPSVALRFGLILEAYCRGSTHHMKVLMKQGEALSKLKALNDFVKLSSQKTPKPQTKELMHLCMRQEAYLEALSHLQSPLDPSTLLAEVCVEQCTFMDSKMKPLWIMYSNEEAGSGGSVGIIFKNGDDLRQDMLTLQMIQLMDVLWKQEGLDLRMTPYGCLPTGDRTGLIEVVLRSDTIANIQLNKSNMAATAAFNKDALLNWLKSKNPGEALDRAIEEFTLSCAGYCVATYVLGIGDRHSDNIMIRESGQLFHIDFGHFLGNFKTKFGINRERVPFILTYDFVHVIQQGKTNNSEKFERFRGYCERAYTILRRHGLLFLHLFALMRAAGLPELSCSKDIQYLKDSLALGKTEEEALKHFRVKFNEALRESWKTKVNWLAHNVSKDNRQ
Chain of PI3Kδ (P27986 whole entry partner): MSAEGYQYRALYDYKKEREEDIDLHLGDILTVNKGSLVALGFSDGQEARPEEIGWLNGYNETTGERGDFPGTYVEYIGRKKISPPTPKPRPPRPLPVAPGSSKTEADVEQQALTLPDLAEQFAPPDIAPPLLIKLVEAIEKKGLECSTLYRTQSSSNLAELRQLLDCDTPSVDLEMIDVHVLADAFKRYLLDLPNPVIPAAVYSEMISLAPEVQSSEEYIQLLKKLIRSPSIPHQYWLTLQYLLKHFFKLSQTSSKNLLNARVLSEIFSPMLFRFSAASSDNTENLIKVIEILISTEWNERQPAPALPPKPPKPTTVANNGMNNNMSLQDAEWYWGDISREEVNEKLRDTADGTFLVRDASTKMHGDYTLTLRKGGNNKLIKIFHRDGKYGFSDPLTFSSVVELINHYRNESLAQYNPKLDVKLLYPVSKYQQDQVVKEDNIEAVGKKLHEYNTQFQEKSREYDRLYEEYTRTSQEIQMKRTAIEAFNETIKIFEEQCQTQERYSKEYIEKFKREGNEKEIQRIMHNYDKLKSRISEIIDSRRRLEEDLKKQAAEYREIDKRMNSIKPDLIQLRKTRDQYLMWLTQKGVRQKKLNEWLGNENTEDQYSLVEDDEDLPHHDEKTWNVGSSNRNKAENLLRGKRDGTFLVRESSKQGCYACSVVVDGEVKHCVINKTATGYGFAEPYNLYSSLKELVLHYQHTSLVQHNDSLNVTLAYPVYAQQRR
Description: (§2) Biological Effect Example 1 PI3Kα and PI3Kδ Enzymatic Inhibitory Activity IC50 Assay • 1. Buffer preparation: 50 mM HEPES, pH 7.5, 3 mM MgCl2, 1 mM EGTA, 100 mM NaCl, 0.03% CHAPS. • 2. Compound was formulated in 100% DMSO in a concentration gradient, deposited to a 384-well plate to make final DMSO concentration of 1%. • 3. PI3Kα and PI3Kδ enzymes were diluted to be the optimum concentration with the following buffer: 50 mM HEPES, pH 7.5, 3 mM MgCl2, 1 mM EGTA, 100 mM NaCl, 0.03% CHAPS, 2 mM DTT. Transferred to a 384-well plate and incubated with the compound for a certain time. • 4. […] The reaction was performed in a 384-well plate for 1 h at room temperature for PI3Kα and 2 hrs at room temperature for PI3Kδ. • 5. Read the conversion rate using Caliper Reader, and calculate the inhibition rate as the average of two tests.

[5] = molecular target: PI3Kα (Homo sapiens (Human), UniProt P42336); test: PI3Kα enzymatic inhibitory activity IC50 assay (Caliper Reader); type: biochemical
Chain of PI3Kα (P42336 whole entry): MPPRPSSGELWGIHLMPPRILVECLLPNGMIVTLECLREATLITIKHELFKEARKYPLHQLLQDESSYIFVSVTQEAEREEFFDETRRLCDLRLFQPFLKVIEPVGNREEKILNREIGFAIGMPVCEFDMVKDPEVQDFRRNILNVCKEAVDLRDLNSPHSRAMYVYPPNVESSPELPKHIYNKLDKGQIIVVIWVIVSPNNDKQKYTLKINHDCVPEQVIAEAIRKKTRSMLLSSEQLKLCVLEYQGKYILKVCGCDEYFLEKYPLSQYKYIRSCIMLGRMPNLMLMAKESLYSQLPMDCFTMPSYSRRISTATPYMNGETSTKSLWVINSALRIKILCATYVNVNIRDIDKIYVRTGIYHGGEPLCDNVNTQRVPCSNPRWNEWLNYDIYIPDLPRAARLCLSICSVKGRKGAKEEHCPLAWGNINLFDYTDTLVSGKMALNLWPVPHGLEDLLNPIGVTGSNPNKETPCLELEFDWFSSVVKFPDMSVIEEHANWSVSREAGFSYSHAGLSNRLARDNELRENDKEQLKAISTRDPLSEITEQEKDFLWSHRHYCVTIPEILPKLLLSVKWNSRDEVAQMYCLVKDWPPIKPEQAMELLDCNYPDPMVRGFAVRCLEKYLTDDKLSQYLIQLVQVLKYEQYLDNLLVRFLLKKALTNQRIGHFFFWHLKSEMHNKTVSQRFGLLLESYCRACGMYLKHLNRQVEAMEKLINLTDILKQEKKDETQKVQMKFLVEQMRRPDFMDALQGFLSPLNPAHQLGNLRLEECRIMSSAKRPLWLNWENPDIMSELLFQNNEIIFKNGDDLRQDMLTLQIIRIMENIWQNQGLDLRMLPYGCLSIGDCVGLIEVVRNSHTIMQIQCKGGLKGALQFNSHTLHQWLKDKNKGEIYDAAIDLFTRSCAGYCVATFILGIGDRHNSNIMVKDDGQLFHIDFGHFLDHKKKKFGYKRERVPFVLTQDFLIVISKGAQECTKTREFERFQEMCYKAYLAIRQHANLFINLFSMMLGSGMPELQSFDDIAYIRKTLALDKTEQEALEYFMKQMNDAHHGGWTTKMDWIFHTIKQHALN
Chain of PI3Kα (P27986 whole entry partner): as the sequence (P27986 whole entry partner) above
Description: as §2

[6] = Body weight of nude mice in the U87MG xenograft study, preliminary evaluation of compound toxicity; type: in vivo; conditions: for Body weight D 0: day 0; for Body weight D 20: day 20
Description: (§3) Groups of nude mice were implanted subcutaneously in the right hind back with 4×10^6 U87MG cells. Start dosing when mean tumor volume reached approximately 150 (100-200) mm^3. Grouping method: before dosing, animals were weighted, tumor sizes were measured, and randomized according to the tumor size (randomized block design), 8 mice per group. A solvent (0.5% CMC-Na+0.2% Tween-80) was dosed once daily by oral gavage for solvent control group, and pre-determined dose of test compound was dosed once daily by oral gavage for a dosing group, for 20 consecutive days.
(§4) Tumor diameters were measured twice a week with a vernier caliper. Tumor volume was calculated with formula: V=0.5a×b^2, a and b represent longer and shorter diameter of tumor. […] Meanwhile, the weight of nude mice in each group was weighed twice weekly for a preliminary evaluation of compound toxicity.

[7] = tested on: malignant glioma cell U87MG xenograft; test: Growth inhibition of malignant glioma cell U87MG xenograft in nude mice; type: in vivo; conditions: for TGI: 20 days; for Tumor size D 0: day 0; for Tumor size D 20: day 20
Description: as §3, §4

[8] = 20 mg/kg once daily oral gavage
[9] = 50 mg/kg once daily oral gavage
[10] = 150 mg/kg once daily oral gavage
[11] = 25 mg/kg once daily oral gavage

IC50 [1] [nM] | IC50 [2] [nM] | IC50 [3] [nM] | IC50 [4] [nM] | IC50 [5] [nM] | Compound | other results
7410 | 4640 | 6110 | 62 | 57 | CS(=O)(=O)N1CCN(Cc2csc3c(-c4cccc5[nH]ncc45)nc(N4CCOCC4)nc23)CC1 [Compound 6] | 
12200 | 6440 | 10100 | 28.3 | 13.1 | Cc1nc(N)ncc1-c1nc(N2CCOCC2)nc2c(CN3CCN(S(C)(=O)=O)CC3)csc12 [Compound 11] | 
 |  |  | 190 | 232 | CS(=O)(=O)N1CCN(Cc2csc3c(-c4ccc(N)nc4)nc(N4CCOCC4)nc23)CC1 [Compound 12] | 
 |  |  | 327 | 265 | CS(=O)(=O)N1CCN(Cc2csc3c(-c4cccc(O)c4)nc(N4CCOCC4)nc23)CC1 [Compound 13] | 
 |  |  | 200 | 104 | CS(=O)(=O)N1CCN(Cc2csc3c(-c4cncnc4)nc(N4CCOCC4)nc23)CC1 [Compound 15] | 
7810 | 4820 | 5390 | 65.4 | 245 | CC(C)(O)C1CCN(Cc2csc3c(-c4cnc(N)nc4)nc(N4CCOCC4)nc23)CC1 [Compound 17] | 
8870 | 3640 | 2310 | 12.6 | 12 | C[C@H](O)C(=O)N1CCN(Cc2csc3c(-c4cnc(N)nc4)nc(N4CCOCC4)nc23)CC1 [Compound 18] | 
8080 | 3990 | 2610 | 31.9 | 51.4 | C[C@@H](O)C(=O)N1CCN(Cc2csc3c(-c4cnc(N)nc4)nc(N4CCOCC4)nc23)CC1 [Compound 19] | 
 |  |  | 52 | 46.2 | CC(C)(O)C(=O)N1CCN(Cc2csc3c(-c4cnc(N)nc4)nc(N4CCOCC4)nc23)CC1 [Compound 20] | 
 |  |  | 4.7 | 35 | Cc1nc(N)ncc1-c1nc(N2CCOCC2)nc2c(CN3CCN(C(=O)[C@H](C)O)CC3)csc12 [Compound 21] | 
 |  |  | 11 | 77 | Cc1nc(N)ncc1-c1nc(N2CCOCC2)nc2c(CN3CCN(C(=O)[C@H](C)O)CC3)csc12 [Compound 22] | 
 |  |  | 16 | 202 | C[C@@H](O)C(=O)N1CCN(Cc2csc3c(-c4cccc5[nH]ncc45)nc(N4CCOCC4)nc23)CC1 [Compound 23] | 
19700 | 9330 | 3280 | 41 | 141 | O=C(CO)N1CCN(Cc2csc3c(-c4cccc5[nH]ncc45)nc(N4CCOCC4)nc23)CC1 [Compound 26] | 
 |  |  | 18 | 76 | C[C@H](O)C(=O)N1CCN(Cc2csc3c(-c4cccc5[nH]ncc45)nc(N4CCOCC4)nc23)CC1 [Compound 27] | 
4460 | 2600 | 1940 | 38 | 24 | Nc1ncc(-c2nc(N3CCOCC3)nc3c(CN4CCN(C(=O)CO)CC4)csc23)cn1 [Compound 28] | 
 |  |  | 60.4 | 262 | Cc1sc2c(-c3cccc4[nH]ncc34)nc(N3CCOCC3)nc2c1CN1CCN(S(C)(=O)=O)CC1 [Compound 30] | 
 |  |  | 290 | 26 | Nc1ncc(-c2nc(N3CCOCC3)nc3ccoc23)cn1 [Compound 31] | 
 |  |  |  | 32 | CN(Cc1csc2c(-c3cnc(N)nc3)nc(N3CCOCC3)nc12)C(=O)CO [Compound 32] | 
 |  |  | 56 | 157 | Cc1sc2c(-c3cnc(N)nc3)nc(N3CCOCC3)nc2c1CN1CCN(CCO)CC1 [Compound 36] | 
 |  |  |  |  | CS(=O)(=O)N1CCN(Cc2cc3nc(-c4cccc5[nH]ncc45)nc(N4CCOCC4)c3s2)CC1 [GDC-0941, reference compound] | Body weight D 0 [6, 11]: 22.24 g; Body weight D 20 [6, 11]: 23.64 g; Body weight D 0 [6, 9]: 22.47 g; Body weight D 20 [6, 9]: 23.57 g; TGI [7, 11]: 57.65%; Tumor size D 0 [7, 11]: 149.86 mm^3; Tumor size D 20 [7, 11]: 456.64 mm^3; TGI [7, 9]: 66.07%; Tumor size D 0 [7, 9]: 150.72 mm^3; Tumor size D 20 [7, 9]: 396.57 mm^3

Compound | IC50 [1] [nM] | IC50 [2] [nM] | IC50 [3] [nM] | IC50 [4] [nM] | IC50 [5] [nM] | other results
Cc1sc2c(-c3cnc(N)nc3)nc(N3CCOCC3)nc2c1CN1CCN(C(=O)[C@H](C)O)CC1 [Compound 24] | 9360 | 2740 | 2070 | 8.3 | 18.9 | 
Cc1sc2c(-c3cnc(N)nc3)nc(N3CCOCC3)nc2c1CN1CCN(C(=O)[C@@H](C)O)CC1 [Compound 25] | 11300 | 6680 | 3060 | 13 | 56 | 
Cc1sc2c(-c3cnc(N)nc3)nc(N3CCOCC3)nc2c1CN1CCN(C(=O)CO)CC1 [Compound 29] | 3740 | 2700 | 1490 | 7 | 18 | Body weight D 0 [6, 8]: 22.40 g; Body weight D 20 [6, 8]: 22.69 g; Body weight D 0 [6, 9]: 22.21 g; Body weight D 20 [6, 9]: 21.99 g; Body weight D 0 [6, 10]: 22.76 g; Body weight D 20 [6, 10]: 20.62 g; tolerability / toxic side effects (in words) ([6]; high dose (150 mg/kg)): the tested mice can still torelate even the high dose; TGI [7, 8]: 88.38%; Tumor size D 0 [7, 8]: 148.62 mm^3; Tumor size D 20 [7, 8]: 232.84 mm^3; TGI [7, 9]: 102.88%; Tumor size D 0 [7, 9]: 151.36 mm^3; Tumor size D 20 [7, 9]: 130.48 mm^3; TGI [7, 10]: 113.86%; Tumor size D 0 [7, 10]: 148.16 mm^3; Tumor size D 20 [7, 10]: 47.70 mm^3; ability to inhibit tumor growth compared with GDC-0941 (in words) ([7]; U87MG xenograft in nude mice): significantly better than GDC-0941; in vivo anti-tumor activity (in words) ([7]; U87MG xenograft in nude mice): strong in vivo anti-tumor activity
